Values after ≈ are worked out from the molar mass of the structure shown. Values joined by “and” are separate entries in the source; they are usually repeats but may differ in a detail not shown here. Equal values may be shown once. “Also recorded” adds a separate entry of the source. Read-outs that look alike come from different tables or passages of the source.
Tests used:
human GluN2A = target: T1, human GluN2A (Homo sapiens, UniProt Q05586+Q12879); experiment: Ca2+ fluorescence (fluo-8) assay in HEK cells expressing GluN2A; type: cell-based; details: for IC50: read-out: GluN2A IC50 (nM) ± SEM (n); for inhibition at 10 µM: HEK293, read-out: inhibition of GluN2A activity at 10 μM, 10 μM compound, HEK cell assay
T1 construct: host or cells: HEK293, tetracycline-induced
Experimental: HEK293 cells expressing the human GRIN1/GRIN2A genes (Chantest Catalog #: CT6120) were grown as an adherent monolayer at 37°C, 5% CO2 in DMEM/Ham’s F12 + 10% tetracycline-screened FBS (Hyclone SH3007.03T) and 500 μg/ml G418. […] To prepare the cells for an experiment, they were rinsed with Dulbecco’s PBS (Ca^2+ and Mg^2+ free) and detached from the flask with TrypLE™ Express (Life Technologies, Carlsbad, CA) using the manufacturer’s recommended methods. Cells collected from the flask were washed twice in Ca^2+/Mg^2+-free Hanks Balanced Salt Solution + 20 mM HEPES (HBSS), and counted and assessed for viability with trypan blue. Washed cells were then dye-loaded by resuspending in Fluo-8/AM calcium sensitive dye plus Component B (AAT Bioquest, Sunnyvale, CA) diluted in HBSS. […] The cell plates were centrifuged at 200 x g, for 2 minutes at 21°C, to create a monolayer of cells at the bottom of the wells.
To initiate an assay, 10 μl of test compound or buffer was added to each well of the cell plate and pre-incubated for 10 minutes in the dark. After 10 minutes, the cell plate was placed in a FDSS 6000 plate reader (Hamamatsu Photonics, Middlesex, NJ); baseline fluorescence readings were collected for 20 seconds. Next, 25 μl of agonist solution (3 μM glutamate, 3 μM glycine, and 1 mM Ca^2+ in HBSS) was added and the change in fluorescence was recorded for 3 minutes.
Results were calculated by computing the ratio of maximum fluorescence achieved during agonist-addition phase vs. baseline fluorescence.

human GluN2D = target: T2, human GluN2D (Homo sapiens, UniProt O15399+Q05586); experiment: Ca2+ fluorescence (fluo-8) assay in HEK cells expressing GluN2D; type: cell-based; details: for inhibition at 10 µM: HEK293, 10 μM compound, negative = increase in Ca2+ response, read-out: GluN2D % Inhib. @ 10 μM ± SEM (n)
T2 construct: expressed in transfected cells; host or cells: HEK cells

human GluN2B = target: T3, human GluN2B (Homo sapiens, UniProt Q05586+Q13224); experiment: Ca2+ fluorescence (fluo-8) assay in HEK cells expressing GluN2B; type: cell-based; details: for inhibition at 10 µM: HEK293, 10 μM compound, negative = increase in Ca2+ response, read-out: GluN2B % Inhib. @ 10 μM ± SEM (n)
T3 construct: expressed in transfected cells; host or cells: HEK cells

NMDA receptor = NMDA receptor (Rattus norvegicus, UniProt P35439+Q00959); experiment: NMDA receptor-mediated fEPSPs in rat hippocampal slices (CA1, MEA); type: cell-based; details: 30 μM D-AP5
Excerpt: Multi-electrode arrays (MEA) technology was used in the recording of hippocampal slices from 3 to 4 week-old male and female Sprague- Dawley rats (Elevage Janvier, Le Genest St Isle, France).
The rats were sacrificed by fast decapitation, without previous anesthesia. The brain was quickly removed and soaked in ice-cold oxygenated buffer with the following composition in mM: KCl 2, NaH2PO4 1.2, MgCl2 7, CaCl2 0.5, NaHCO3 26, glucose 11, and saccharose 250. […] Slice were placed in the center of a 3D-MEA to cover the electrode field (1.4 mm^2) and then immobilized with a netting ballast. […] NBQX (10 μM) was added to inhibit AMPA receptors. The bath was ground connected with a 1 M NaCl-Agar bridge.
All data were recorded with a MEA set-up from Multi Channel Systems MCS GmbH (Reutlingen, Germany) composed of a 4-channel stimulus generator and a 60-channel amplifier head-stage connected to a 60-channel A/D card. […]
Following visual observation through a CCD camera, one of the electrodes identified in the CA3 field (at CA3/CA1 border) was disconnected from its amplifier and used to stimulate Schaeffer collaterals. […] Simultaneous evoked field potentials were recorded from 3 to 6 electrodes in the CA1 stratum radiatum region, corresponding to the physiological propagation of the stimulus along the Schaffer collateral pathway. […]

AMPA receptor = experiment: AMPA receptor-mediated synaptic currents of pyramidal neurons in mouse visual cortex slices; type: cell-based; details: in the presence of 50 μM compound; controls 118±16 pA
Experimental: […]. […] […].
Wild-type (WT) mice and GRIN2A knock-out (KO) male mice were bred in house at Boston Children’s Hospital. The GRIN2A-KO colony was derived from mice originally obtained from M. Mishina (1995, University of Tokyo, Japan). All procedures using these mice were approved by the Boston Children’s Hospital Institutional Animal Care and Use Committee. Methods used were previously described in [30] and are summarized below.
Coronal visual cortical slices ([…]) were prepared from postnatal day (P)22–31 male mice following decapitation under isoflurane anesthesia. […]
Layer 2/3 pyramidal neurons were selected based on morphology under infrared differential interference contrast microscopy and their identity confirmed from a brief train of action potentials recorded prior to initiating voltage-clamp recordings. […] All data were acquired and analyzed using custom- made procedures in Igor-Pro Software (WaveMetrics, Lake Oswego, Oregon).
To estimate the relative contribution of NMDA and AMPA receptors to the synaptic current, the amplitude was measured at the time of the peak current at -100 mV for the AMPA receptor-mediated current and at the time point after the current at -100 mV had decayed to less than 5% of its peak amplitude for the NMDA receptor-mediated current. […]

5-HT2A = target: T4, 5-HT2A (Homo sapiens, UniProt P28223); experiment: CEREP-80 panel ligand binding, 5-HT2A; details: read-out: inhibition of 5-HT2A agonist binding
T4 construct: CEREP (panel CEREP-80)

MDR1 = experiment: in vitro; type: in vitro ADME; details: dog, MDCK-MDR1; for Papp A→B: compound added on apical side (A-B), read-out: MDCK A-B permeability; for Papp B→A: compound added on basal side (B-A), read-out: MDCK B-A permeability
Experimental: MDCK cells transfected with MDR1 were maintained in monolayer culture for 3–4 days in 24-well transporter plates. Cultures with average TEER values of 600–800 Ohm x cm^2 were utilized for experimentation. Test compound was added to either the apical or basal membrane chamber and then efflux across the monolayer was monitored by quantifying compound with LC-MS/MS.

[1] = system: panel of receptors and enzymes relevant to CNS pharmacology (CEREP-80); experiment: CEREP-80 panel ligand binding, remainder of the panel; details: 1 μM
Excerpt: […]. […] […]

[2] = Stability in pooled human liver microsomes; type: in vitro ADME; details: pH 7.4, 1 μM compound, read-out: HLM t½
Experimental: Human liver microsomes were prepared from pooled cryopreserved human hepatocytes (HEP10™, catalog number HMCS10, lot # HuE106, Life Technologies Corporation, Grand Island, NY). According to the vendor, the liver cells from lot HuE106 were derived from tissue obtained from accredited institutions. Consent was obtained by these institutions from the donors or the donor’s legal next of kin, for use of the tissue and its derivatives for research purposes. Microsomes were diluted into 66.7 mM potassium phosphate buffer (pH 7.4) to an approximate concentration of 0.5 mg/mL of microsomal protein. Test compounds (1 μM) were pre-incubated with the microsomes for 5 min at 37°C and then the reaction initiated by addition of […]. After different times up to 30 min, the reactions were quenched, clarified by centrifugation and remaining compound quantified by LC-MS/MS.

5-HT1B = target: T5, 5-HT1B (Rattus norvegicus, UniProt P28564); experiment: CEREP-80 panel ligand binding, 5-HT1B; details: read-out: inhibition of 5-HT1B antagonist binding
T5 construct: CEREP (panel CEREP-80)

Kinetic solubility = type: physicochemical; details: phosphate buffered saline, aqueous buffer, kinetic from dmso stock; in solution by HPLC after dissolution in DMSO and addition to saline
Experimental: Compounds were prepared as stock solutions at 20 mM in DMSO and diluted in DMSO to give a range of test concentrations 100-fold greater than final. Compounds were diluted 100-fold into phosphate buffered saline and incubated during mild shaking for 90 min at room temperature. Solutions were filtered through multiscreen solubility filter plate and the filtrate analyzed for compound concentration by HPLC-UV/PDA or LC-MS/MS.

EP4 = target: T6, EP4 (Homo sapiens, UniProt P35408); experiment: CEREP-80 panel ligand binding, EP4; details: read-out: inhibition of EP4 agonist binding
T6 construct: CEREP (panel CEREP-80)

uninjected oocytes = experiment: Endogenous currents in control (uninjected) oocytes; type: cell-based, Xenopus; details: concentrations up to 10 μM
Experimental: The cells were then gently aspirated with a Pasteur pipette to remove the follicular tissue; this was followed by washing three times with OR-2 to remove all traces of collagenase. The oocytes were then washed in ND-96 (96 mM NaCl, 2 mM KCl, 1.8 mM CaCl2, 1 mM MgCl2, 5 mM HEPES, 50 ng/L gentamycin, 100 units/ml penicillin and 100 μg/ml streptomycin; pH 7.6) three times and this was followed by incubation in ND-96 at room temperature with mild agitation for 15 minutes; subsequently they were stored for at least 2 hours at 16°C before sorting and selection for injection. Oocytes selected for injection were incubated overnight in ND-96 at 16°C.
Electrodes were filled with 3 M KCl and had resistances that ranged from 0.2–1 MΩ. All measurements were made at a holding potential of -40 mV. Cells were continuously perfused with oocyte recording solution containing 90 mM NaCl, 1 mM KCl, 0.5 mM BaCl2, and 10 mM HEPES (Ph 7.4). […] Co-agonists were applied until a plateau was reached, and test compounds were then added in the continued presence of co-agonists until a new plateau was reached. […] Fraction of current remaining was calculated as [(current in presence of test compound–background current) / (co-agonist current–background current)] and IC50 values were computed using Prism 6.0 (Graphpad).

[3] = system: NMDA receptor (NMDA + glycine evoked currents); experiment: Whole-cell manual patch clamp of rat cortical neurons in primary culture; type: cell-based; details: 10 μM compound; NMDA 100 μM + glycine 10 μM; +40 mV; mean ± SEM
Excerpt: Cortical neurons isolated from E18 rat embryos and cultured for two weeks were examined in whole-cell manual patch clamp experiments.
Cryopreserved E-18 rat cortical neurons (GIBCO A10840-02) were purchased from Life Technologies Italia (Monza, Italy).
Cortical neurons were thawed and plated at 5x10^4 or 10x10^4 cells/well in 35 x 100 mm tissue culture dishes containing poly-D-lysine treated glass coverslips, and maintained in the media and conditions recommended by the manufacturer for 13–15 days. […] Glycine (10 μM) was added in the extracellular solution or in the NMDA solution. Cells were patch clamped in the whole-cell configuration with a holding potential of -70 mV stepping once every minute to +20 or +40 mV for 10 s. Starting 1.5 s after each voltage step, 100 μM NMDA plus 10 μM glycine was applied using rapid local perfusion (RSC-200, Bio-Logic Science Instruments, Claix, France). Currents were evaluated at peak during the NMDA application, and current inhibition was computed using Prism software (GraphPad) once steady state was achieved.

[4] = inhibition of Ca2+ response, HEK cells, glutamate and glycine 3 μM each
[5] = inhibition of Ca2+ response, HEK cells, glutamate and glycine 3 μM each, read-out: GluN2D IC50 (nM) ± SEM (n)
[6] = inhibition of Ca2+ response, HEK cells, glutamate and glycine 3 μM each, read-out: GluN2B IC50 (nM) ± SEM (n)

T3 sequence (Q13224 27-1484, other chains not shown): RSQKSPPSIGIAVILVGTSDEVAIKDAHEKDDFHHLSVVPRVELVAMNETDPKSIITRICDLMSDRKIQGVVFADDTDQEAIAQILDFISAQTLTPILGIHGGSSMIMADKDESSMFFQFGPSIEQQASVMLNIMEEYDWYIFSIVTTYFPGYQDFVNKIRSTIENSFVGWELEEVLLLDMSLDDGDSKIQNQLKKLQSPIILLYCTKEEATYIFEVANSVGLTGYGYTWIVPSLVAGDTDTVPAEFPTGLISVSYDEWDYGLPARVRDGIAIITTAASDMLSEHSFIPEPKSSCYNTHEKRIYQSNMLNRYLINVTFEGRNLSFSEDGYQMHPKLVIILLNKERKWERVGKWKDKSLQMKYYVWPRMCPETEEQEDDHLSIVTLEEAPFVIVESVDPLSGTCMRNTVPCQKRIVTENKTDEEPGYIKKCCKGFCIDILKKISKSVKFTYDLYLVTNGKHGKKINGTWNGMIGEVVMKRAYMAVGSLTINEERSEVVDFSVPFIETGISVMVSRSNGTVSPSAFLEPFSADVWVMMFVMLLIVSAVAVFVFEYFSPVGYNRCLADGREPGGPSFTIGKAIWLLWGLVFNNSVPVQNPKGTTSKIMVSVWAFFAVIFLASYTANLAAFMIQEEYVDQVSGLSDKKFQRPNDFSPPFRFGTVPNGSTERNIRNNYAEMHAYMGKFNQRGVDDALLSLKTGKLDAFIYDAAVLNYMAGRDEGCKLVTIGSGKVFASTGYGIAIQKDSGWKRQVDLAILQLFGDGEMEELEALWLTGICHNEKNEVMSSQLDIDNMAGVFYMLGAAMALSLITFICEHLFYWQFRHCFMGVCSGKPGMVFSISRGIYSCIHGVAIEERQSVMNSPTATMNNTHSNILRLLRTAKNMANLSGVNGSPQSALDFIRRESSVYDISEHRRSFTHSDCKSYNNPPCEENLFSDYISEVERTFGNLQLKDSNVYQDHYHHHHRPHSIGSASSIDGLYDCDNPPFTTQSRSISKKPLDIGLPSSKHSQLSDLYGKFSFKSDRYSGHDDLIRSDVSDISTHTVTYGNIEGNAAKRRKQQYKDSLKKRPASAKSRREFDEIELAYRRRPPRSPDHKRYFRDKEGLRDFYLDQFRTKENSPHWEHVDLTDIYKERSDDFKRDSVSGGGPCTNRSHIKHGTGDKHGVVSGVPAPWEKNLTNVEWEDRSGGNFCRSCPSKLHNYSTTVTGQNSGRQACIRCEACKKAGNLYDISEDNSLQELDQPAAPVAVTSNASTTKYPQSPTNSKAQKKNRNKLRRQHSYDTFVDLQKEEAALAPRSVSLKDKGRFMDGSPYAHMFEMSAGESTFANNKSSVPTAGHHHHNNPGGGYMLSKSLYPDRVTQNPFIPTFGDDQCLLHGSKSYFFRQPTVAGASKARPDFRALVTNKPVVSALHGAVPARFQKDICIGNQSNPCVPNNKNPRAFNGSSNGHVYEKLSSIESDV
T2 sequence (O15399 28-1336, other chains not shown): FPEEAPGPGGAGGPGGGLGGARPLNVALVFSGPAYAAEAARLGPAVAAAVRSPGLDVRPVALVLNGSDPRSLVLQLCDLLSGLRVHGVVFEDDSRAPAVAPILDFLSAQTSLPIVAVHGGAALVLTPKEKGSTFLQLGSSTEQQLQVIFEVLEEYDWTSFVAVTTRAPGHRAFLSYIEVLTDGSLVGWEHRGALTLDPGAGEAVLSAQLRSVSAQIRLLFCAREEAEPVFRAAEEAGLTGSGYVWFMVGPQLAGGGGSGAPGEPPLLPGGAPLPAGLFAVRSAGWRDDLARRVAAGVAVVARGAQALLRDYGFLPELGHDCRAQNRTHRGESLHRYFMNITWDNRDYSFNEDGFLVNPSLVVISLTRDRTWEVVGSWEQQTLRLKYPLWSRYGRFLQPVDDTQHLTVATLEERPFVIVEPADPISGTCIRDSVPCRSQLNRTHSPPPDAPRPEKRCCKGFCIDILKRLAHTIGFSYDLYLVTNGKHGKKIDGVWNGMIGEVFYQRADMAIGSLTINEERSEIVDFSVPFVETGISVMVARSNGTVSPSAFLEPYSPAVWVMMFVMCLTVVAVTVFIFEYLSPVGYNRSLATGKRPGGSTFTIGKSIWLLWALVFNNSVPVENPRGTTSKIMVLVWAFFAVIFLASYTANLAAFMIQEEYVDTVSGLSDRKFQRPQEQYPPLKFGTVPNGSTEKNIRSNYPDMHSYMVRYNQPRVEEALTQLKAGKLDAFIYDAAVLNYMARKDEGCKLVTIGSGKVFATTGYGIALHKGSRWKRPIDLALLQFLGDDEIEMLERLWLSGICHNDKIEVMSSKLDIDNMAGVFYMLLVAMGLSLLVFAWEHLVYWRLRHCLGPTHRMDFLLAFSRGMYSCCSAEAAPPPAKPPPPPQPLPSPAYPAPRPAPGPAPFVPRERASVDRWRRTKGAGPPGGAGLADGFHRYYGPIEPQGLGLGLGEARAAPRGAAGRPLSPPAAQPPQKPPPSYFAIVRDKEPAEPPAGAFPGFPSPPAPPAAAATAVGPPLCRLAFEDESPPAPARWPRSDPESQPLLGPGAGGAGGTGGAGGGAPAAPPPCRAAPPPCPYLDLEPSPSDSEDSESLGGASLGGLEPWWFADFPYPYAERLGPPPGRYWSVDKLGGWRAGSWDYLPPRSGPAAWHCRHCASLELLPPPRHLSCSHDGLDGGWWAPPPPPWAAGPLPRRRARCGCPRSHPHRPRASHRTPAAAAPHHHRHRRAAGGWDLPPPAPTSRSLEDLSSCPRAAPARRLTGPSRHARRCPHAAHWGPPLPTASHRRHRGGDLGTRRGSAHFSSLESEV
T1 sequence (Q12879 23-1464, other chains not shown): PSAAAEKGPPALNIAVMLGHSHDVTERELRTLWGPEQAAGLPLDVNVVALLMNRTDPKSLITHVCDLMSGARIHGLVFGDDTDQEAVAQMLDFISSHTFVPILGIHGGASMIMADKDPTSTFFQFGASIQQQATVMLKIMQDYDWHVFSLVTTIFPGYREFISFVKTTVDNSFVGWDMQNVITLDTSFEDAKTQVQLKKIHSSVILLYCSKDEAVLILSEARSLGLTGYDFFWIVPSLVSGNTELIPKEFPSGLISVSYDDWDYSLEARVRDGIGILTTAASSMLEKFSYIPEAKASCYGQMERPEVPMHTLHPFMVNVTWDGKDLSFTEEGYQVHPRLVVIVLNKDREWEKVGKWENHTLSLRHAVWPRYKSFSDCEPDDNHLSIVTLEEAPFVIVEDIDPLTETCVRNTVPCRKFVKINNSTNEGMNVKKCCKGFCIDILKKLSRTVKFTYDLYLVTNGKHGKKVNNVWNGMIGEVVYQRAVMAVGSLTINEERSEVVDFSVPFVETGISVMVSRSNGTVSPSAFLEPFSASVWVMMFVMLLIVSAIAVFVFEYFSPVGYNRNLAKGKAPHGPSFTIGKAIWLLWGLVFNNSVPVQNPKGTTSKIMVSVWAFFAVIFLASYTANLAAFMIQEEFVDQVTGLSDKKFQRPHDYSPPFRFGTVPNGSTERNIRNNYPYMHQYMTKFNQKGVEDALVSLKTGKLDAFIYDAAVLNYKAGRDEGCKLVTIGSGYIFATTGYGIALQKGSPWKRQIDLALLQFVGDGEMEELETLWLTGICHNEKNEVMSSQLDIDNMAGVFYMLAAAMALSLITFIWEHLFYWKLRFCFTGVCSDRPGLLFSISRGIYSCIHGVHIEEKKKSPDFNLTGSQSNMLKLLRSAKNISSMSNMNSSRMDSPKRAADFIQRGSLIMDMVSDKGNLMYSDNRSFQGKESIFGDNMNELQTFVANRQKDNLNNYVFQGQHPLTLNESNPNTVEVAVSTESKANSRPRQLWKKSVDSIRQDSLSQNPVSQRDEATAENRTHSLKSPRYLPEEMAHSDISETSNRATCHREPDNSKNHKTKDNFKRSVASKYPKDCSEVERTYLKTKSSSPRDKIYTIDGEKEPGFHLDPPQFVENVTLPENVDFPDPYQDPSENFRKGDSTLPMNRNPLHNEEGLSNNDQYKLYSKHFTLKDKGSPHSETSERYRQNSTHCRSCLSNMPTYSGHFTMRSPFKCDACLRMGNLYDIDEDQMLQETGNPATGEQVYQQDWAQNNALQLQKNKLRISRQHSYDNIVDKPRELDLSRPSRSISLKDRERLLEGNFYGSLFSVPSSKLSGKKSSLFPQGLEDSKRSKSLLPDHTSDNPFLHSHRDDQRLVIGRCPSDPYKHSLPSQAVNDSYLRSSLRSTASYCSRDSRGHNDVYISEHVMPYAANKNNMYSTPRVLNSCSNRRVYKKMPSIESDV
T6 sequence (P35408 whole entry): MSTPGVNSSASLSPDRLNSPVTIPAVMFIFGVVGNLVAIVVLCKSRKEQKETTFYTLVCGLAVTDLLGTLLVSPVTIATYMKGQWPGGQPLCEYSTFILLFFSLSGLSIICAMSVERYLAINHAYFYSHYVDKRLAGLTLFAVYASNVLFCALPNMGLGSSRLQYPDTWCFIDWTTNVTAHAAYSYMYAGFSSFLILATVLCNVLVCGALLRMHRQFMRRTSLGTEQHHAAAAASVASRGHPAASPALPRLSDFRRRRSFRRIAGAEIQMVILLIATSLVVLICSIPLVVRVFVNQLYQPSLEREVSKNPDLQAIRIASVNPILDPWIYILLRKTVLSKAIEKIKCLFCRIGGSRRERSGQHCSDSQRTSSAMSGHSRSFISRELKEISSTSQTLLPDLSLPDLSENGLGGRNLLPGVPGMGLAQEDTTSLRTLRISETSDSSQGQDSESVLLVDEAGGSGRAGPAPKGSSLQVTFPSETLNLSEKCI
T5 sequence (P28564 whole entry): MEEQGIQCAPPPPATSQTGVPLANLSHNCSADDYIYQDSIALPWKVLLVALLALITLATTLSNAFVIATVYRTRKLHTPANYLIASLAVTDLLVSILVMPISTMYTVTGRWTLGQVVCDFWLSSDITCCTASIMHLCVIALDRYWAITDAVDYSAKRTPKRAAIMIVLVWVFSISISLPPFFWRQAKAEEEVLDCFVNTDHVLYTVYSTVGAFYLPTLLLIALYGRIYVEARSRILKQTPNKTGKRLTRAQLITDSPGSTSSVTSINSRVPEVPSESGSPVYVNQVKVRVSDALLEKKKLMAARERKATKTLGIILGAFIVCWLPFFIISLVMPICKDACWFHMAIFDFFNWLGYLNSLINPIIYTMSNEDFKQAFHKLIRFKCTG

For `O=C(O)c1cc(=O)c2c(Cl)cc(Cl)cc2[nH]1` [5,7-DCKA, reference compound], the IC50 (human GluN2A; [4]) was 1170 ± 230 nM, the IC50 (human GluN2D; [5]) was greater than 10000 nM and the IC50 (human GluN2B; [6]) was 8400 ± 1400 nM.

Compound `N[C@@H](Cc1ccccn1)c1ccccc1` [ARL-15896, reference compound] has an IC50 (human GluN2D; [5]) of 25000 nM and an IC50 (human GluN2B; [6]) of 510000 nM.

`C[C@@H]([C@@H](O)c1ccc(O)cc1)N1CCC(O)(c2ccccc2)CC1` [CP-101,606, reference compound] gave an IC50 (human GluN2A; [4]) greater than 10000 nM and an IC50 (human GluN2D; [5]) greater than 10000 nM.

In the case of `NC(CCCP(=O)(O)O)C(=O)O` [D-AP5], the “block of fEPSPs by D-AP5 at the conclusion of each experiment” value (NMDA receptor) is reported as “completely blocked”.

Work on `C[C@]12N[C@H](Cc3ccccc31)c1ccccc12` [MK-801, reference compound] yielded an IC50 (human GluN2D) of 87 ± 3 nM and an IC50 (human GluN2B) of 75 ± 4 nM.

For `Cc1ncc(CNC(=O)c2cnc(CNS(=O)(=O)c3ccc(F)c(Cl)c3)cn2)s1` [MPX-004, 5-(((3-chloro-4-fluorophenyl)sulfonamido)methyl)-N-((2-methylthiazol-5-yl)methyl)pyrazine-2-carboxamide], the “AMPA receptor-mediated synaptic currents” value (AMPA receptor) was 118±21 pA, the inhibition at 1 µM (5-HT2A) was 31% and the Papp A→B (MDR1) was 17.3 ×10⁻⁶ cm/s. The Papp B→A (MDR1) was 66.1 ×10⁻⁶ cm/s, the “effects on binding of ligands in the remainder of the panel” value [1] was “less than 25%” and the half-life at 1 μM [2] was 53 min. It also gave an inhibition at 1 µM (5-HT1B) of 35%, a solubility at 90 min (Kinetic solubility) of 16 µM (≈ 7.29 µg/mL) and an inhibition at 1 µM (EP4) of 27%.

For `Cc1ncc(CNC(=O)c2cnc(CNS(=O)(=O)c3ccc(F)c(F)c3)c(C)n2)s1` [MPX-007], the Papp A→B (MDR1) was 14.2 ×10⁻⁶ cm/s, the Papp B→A (MDR1) was 76.8 ×10⁻⁶ cm/s and the “inhibition of currents in control (uninjected) oocytes” value (uninjected oocytes) was “no effect; also recorded: No inhibition”. For the same compound, the half-life at 1 μM [2] was 63 min and the solubility at 90 min (Kinetic solubility) was 68 µM (≈ 30.8 µg/mL).

Work on `O=C(O)[C@@H]1[C@H](C(=O)O)NCCN1C(=O)c1ccc2c(ccc3ccccc32)c1` [PPDA, reference compound] yielded an IC50 (human GluN2A; [4]) of 4860 ± 960 nM, an IC50 (human GluN2D; [5]) of 34800 nM and an IC50 (human GluN2B; [6]) of 8490 ± 1000 nM.

For `O=C(NNC(=O)c1ccc(CNS(=O)(=O)c2ccc(F)c(Cl)c2)cc1)c1ccccc1` [TCN-201, 3-chloro-4-fluoro-N-[4-[[2-(phenylcarbonyl)hydrazino]carbonyl]benzyl]benzenesulfonamide, reference compound], the Papp A→B (MDR1) was 7.5 ×10⁻⁶ cm/s, the Papp B→A (MDR1) was 58.9 ×10⁻⁶ cm/s and the half-life at 1 μM [2] was 19 min. The solubility at 90 min (Kinetic solubility) was 8 µM (≈ 3.7 µg/mL).

Compound `Cc1ncc(CNC(=O)c2ccc(CNS(=O)(=O)c3ccc(F)c(Cl)c3)cc2)s1` [compound 2] has an inhibition at 10 µM (human GluN2A) greater than 95%, an IC50 (human GluN2A) of 398 ± 90 nM and an inhibition at 10 µM (human GluN2D) of -6 ± 2%. It also gave an inhibition at 10 µM (human GluN2B) of 4 ± 1%.

In the case of `Cc1ncc(CNC(=O)c2ccc(CNS(=O)(=O)c3ccc(F)c(Cl)c3)cn2)s1` [compound 3], the inhibition at 10 µM (human GluN2A) is reported as greater than 95%, the IC50 (human GluN2A) is reported as 75 ± 13 nM and the inhibition at 10 µM (human GluN2D) is reported as -6 ± 2%. It also gave an inhibition at 10 µM (human GluN2B) of 1 ± 1%.

With `Cc1ncc(CNC(=O)c2cnc(CNS(=O)(=O)c3ccc(F)c(F)c3)cn2)s1` [compound 5] the inhibition at 10 µM (human GluN2A) was greater than 95%, the IC50 (human GluN2A) was 116 ± 22 nM and the inhibition at 10 µM (human GluN2D) was -10 ± 5%. For the same compound, the inhibition at 10 µM (human GluN2B) was -8 ± 2%.

With `Cc1ncc(CNC(=O)c2ccc(CNS(=O)(=O)c3ccc(F)c(F)c3)cn2)s1` [compound 6] the inhibition at 10 µM (human GluN2A) was greater than 95%, the IC50 (human GluN2A) was 158 ± 30 nM and the inhibition at 10 µM (human GluN2D) was -13 ± 10%. The inhibition at 10 µM (human GluN2B) was -1 ± 1%.

`Cc1ncc(CNC(=O)c2cnc(CNS(=O)(=O)c3ccc(F)c(Cl)c3)c(C)n2)s1` [compound 7] showed an inhibition at 10 µM (human GluN2A) greater than 95%, an IC50 (human GluN2A) of 18 ± 2 nM and an inhibition at 10 µM (human GluN2D) of -1 ± 2%. The inhibition at 10 µM (human GluN2B) was -8 ± 1%.

For `Cc1ncc(CNC(=O)c2cnc(CNS(=O)(=O)c3ccc(Cl)c(F)c3)c(C)n2)s1` [compound 8], the inhibition at 10 µM (human GluN2A) was greater than 95%, the IC50 (human GluN2A) was 971 ± 242 nM and the inhibition at 10 µM (human GluN2D) was 6 ± 6%. It also gave an inhibition at 10 µM (human GluN2B) of -7 ± 2%.

`Cc1ncc(CNC(=O)c2cnc(CN(C)S(=O)(=O)c3ccc(F)c(Cl)c3)c(C)n2)s1` [compound 10] gave an inhibition at 10 µM (human GluN2A) greater than 95% and an IC50 (human GluN2A) of 242 ± 61 nM.

In the case of Ro 25–6981, the “block of NMDA + glycine evoked currents in rat cortical neurons” value [3] is reported as 72 ± 5% and ~ 70%.

— paper PMC4734667 (PLoS ONE, 2016)
